These results are taken from the OPERA property sets (Mansouri et al. 2018).

Usually melting point stands for the temperature of the solid-liquid transition. As for `Nc1ccc([N+](=O)[O-])cc1C(=O)c1ccccc1`, the melting point came out at 163 °C. Take `C=COC=O`: the log10 vapour pressure (mmHg) came to 2.5. Usually boiling point stands for the temperature of boiling at a given pressure. For `CCCCCC(CC)CC`, the boiling point was found to be 166 °C. Regarding `CC(=O)CC(=O)Nc1ccccc1C`, the melting point worked out at 105 °C and the ready biodegradability result is “readily biodegradable”.

`COCCOC1=C(N2CC2)C(=O)C(OCCOC)=C(N2CC2)C1=O` had a melting point of 80 °C. The same measure, in the same setting: with `OC1c2ccccc2Oc2ccccc21` the figure was 128 °C. Molecule `Cc1ccc(CCN)cc1` registered a boiling point of 214 °C. `Nc1cccc(I)c1` returned a melting point of 33 °C.

`CCCCCCCCCCCCCCO`: the boiling point stood at 289 °C, the log10 vapour pressure (mmHg) was -3.96, the melting point was found to be 39.5 °C and the ready biodegradability result is listed as “readily biodegradable”.

Consider `N#CCCCC#N`, for which the boiling point was 286 °C, the log10 vapour pressure (mmHg) is -2.08 and the melting point is -29 °C. For the molecule `N[C@@H](Cc1cc(I)c(O)c(I)c1)C(=O)O`, the melting point was determined as 213 °C. As for `COc1cc(O)cc(OC)c1`, the melting point was 37 °C. For `ClCCOc1ccccc1`, the boiling point turned out to be 218 °C and the melting point worked out at 28 °C. Consider `CC(C)CC(O)C(C)C` (stereo not given), for which the boiling point was found to be 158 °C. On to `c1cc(-c2ccncc2)ccn1`, for which the boiling point stood at 305 °C, the log10 vapour pressure (mmHg) was -4.25 and the melting point turned out to be 111 °C. In the same order, the values of `C=CC(C)CC` (stereo not given) are 54.2 °C, 2.43 and -153 °C. `CC(C)C(C)(C)C`: the boiling point was found to be 80.8 °C, the log10 biodegradation half-life (days) stood at 0.778, the log10 vapour pressure (mmHg) turned out to be 2.01 and the melting point was -25 °C.

As for `CCCCCCCCCCCCCCCCCCc1ccccc1`, the boiling point is 408 °C and the melting point came out at 29 °C. `C=C1CCC(C)CC1` had a boiling point of 122 °C. In turn, `CC(=O)OOC(C)=O` showed a melting point of 30 °C.

Molecule `CC=C(CC)C(C)C(=O)CC` (stereo not given) yielded a melting point of 74.5 °C. On the same count and under the same terms, with `Cc1cc(C(C)(C)C)c(O)c(C)c1CC1=NCCN1` the figure was 182 °C. In the case of `Cc1ccc(N=C=O)cc1N=C=O`, the boiling point came out at 251 °C, the log10 vapour pressure (mmHg) is -2.1, the melting point was determined as 20.5 °C and the ready biodegradability entry is reported as “not readily biodegradable”. In turn, `Fc1cccc2ccccc12` showed a boiling point of 215 °C and a melting point of -9 °C. With `CC(C)[C@@H]1CC[C@@H](C)CC1=O`, the boiling point turned out to be 207 °C and the melting point is -6 °C. Consider `CCCC=CC(=O)OCC`, for which the boiling point came out at 174 °C. Molecule `CP(C)(=O)O` had a melting point of 92 °C. As for `NS(=O)(=O)c1cc2c(cc1Cl)N=C(CSCc1ccccc1)NS2(=O)=O`, the melting point was 232 °C.

In turn, `Clc1cc(Cl)c(C(Cl)Cl)cc1Cl` had a boiling point of 280 °C. In turn, `CCOCCO` returned a boiling point of 135 °C, a log10 Henry constant (atm·m³/mol) of -6.33, a log10 vapour pressure (mmHg) of 0.725 and a melting point of -70 °C. For the same molecule, the ready biodegradability result is “readily biodegradable”. With `CCCC#CCCC`, the boiling point amounted to 132 °C, the log10 vapour pressure (mmHg) was 0.985 and the melting point is -101 °C. `O=C(OC(=O)C(F)(F)C(F)(F)C(F)(F)F)C(F)(F)C(F)(F)C(F)(F)F` gave a boiling point of 106 °C and a melting point of -43 °C. In the same order, the values of `COc1ccc(I)cc1` are 238 °C and 53 °C. Molecule `CCCCCCCCC(=O)OCCCCCCC` showed a melting point of -15.5 °C. Still for that read-out and setting: with `O=C(O)Cc1cccc(Cl)c1` the figure was 78.8 °C. For the molecule `Clc1cccc(-c2cccc(Cl)c2)c1`, the boiling point worked out at 320 °C, the log10 Henry constant (atm·m³/mol) is -3.63, the log10 vapour pressure (mmHg) was -3.19 and the melting point was found to be 29 °C. The like results for `CC(C)CCOC=O` were, in that order, 124 °C, -3.17, 1.18 and -93.5 °C.

Regarding `CCc1cccc(C(C)=O)c1`, the log10 vapour pressure (mmHg) is 0.357 and the melting point is -20 °C.

Consider `O=C(c1ccccc1)c1ccccn1`, for which the boiling point is 317 °C, the melting point was 42 °C and the ready biodegradability result was “readily biodegradable”. As for `CCCCCCCCF`, the boiling point was found to be 142 °C and the log10 vapour pressure (mmHg) was 0.772. Turning to `Brc1cccc(-c2ccccc2)c1`, the boiling point stood at 300 °C. The molecule `O=Nc1ccc(O)c(N=O)c1O` showed a melting point of 168 °C.

Turning to `CCCCCCCCCCCCCCCC(=O)OCCCC`, the melting point was 16.9 °C.

With `SCCS`, the boiling point came out at 146 °C, the log10 vapour pressure (mmHg) was found to be 0.749 and the melting point is -41.2 °C. Molecule `CCCCCCC(O)CCCCC` (stereo not given) gave a boiling point of 225 °C and a melting point of 30 °C. In turn, `O=C=Nc1ccc([N+](=O)[O-])cc1` displayed a melting point of 57 °C. Take `O=c1cnn([C@@H]2O[C@H](CO)[C@@H](O)[C@H]2O)c(=O)[nH]1`: the melting point came out at 158 °C.

`Clc1ccc2c(Cl)c(Cl)ccc2c1` returned a log10 Koa of 7.5. `Cc1nc2n(c(=O)c1CCN1CCC(c3noc4cc(F)ccc34)CC1)CCCC2` displayed a melting point of 170 °C.

Molecule `COCCOc1c(OC)cc(Cc2cnc(N)nc2N)cc1OC` showed a melting point of 154 °C. `Cc1cc(N)n(-c2ccccc2)n1`: the boiling point is 333 °C and the melting point amounted to 116 °C. `CCCC(CC)CC(C)C` (stereo not given) displayed a boiling point of 158 °C.

`C=CCC(C)CCC` (stereo not given) displayed a boiling point of 113 °C.

Molecule `Oc1ccc2cc(Cl)ccc2c1` displayed a melting point of 116 °C.

In turn, `O=C(O)C(Cl)Br` (racemic) returned a boiling point of 215 °C and a melting point of 31.5 °C. `CCN(C)C` showed a boiling point of 36.5 °C and a melting point of -140 °C.
